Reference: article PMC10905675, “INX-315, a Selective CDK2 Inhibitor, Induces Cell Cycle Arrest and Senescence in Solid Tumors” (Cancer Discovery, 2023)
Read-outs that look alike come from different tables or passages of the source.

Tests used:
BMX = molecular target: T1, BMX (Homo sapiens, UniProt P51813); assay: SelectScreen ZLYTE; type: biochemical; settings: INX-0315 at 100nM
T1 construct: purchased Thermo Fisher Scientific SelectScreen (plus Nanosyn / Reaction Biology for CDK/cyclin lines)
Text: (§1) INX-315 was first evaluated in the SelectScreen Biochemical Kinase Profiling at Thermo Fisher Scientific (Madison, WI). The primary screen consisted of INX-315 dosed at a single concentration of 100 nmol/L in 1% DMSO across each platform within the SelectScreen array of assays, LanthaScreen Eu Kinase Binding Assay; AdaptaScreen; and Z'LyteScreen using preestablished conditions at Thermo Fisher Scientific as shown in Supplementary Table S2. […] The follow-up screen consisted of 10-point dose–response curves for INX-315 from 1 µmol/L to 0.0495 nmol/L.

BRAF = molecular target: T2, BRAF (Homo sapiens, UniProt P15056); assay: SelectScreen ZLYTE; type: biochemical; settings: INX-0315 at 100nM
T2 construct: purchased Thermo Fisher Scientific SelectScreen (plus Nanosyn / Reaction Biology for CDK/cyclin lines)
Text: as §1

EGFR (ErbB1) L858R = molecular target: T3, EGFR (ErbB1) L858R (Homo sapiens, UniProt P00533, L858R); assay: SelectScreen ZLYTE; type: biochemical; settings: INX-0315 at 100nM
T3 construct: purchased Thermo Fisher Scientific SelectScreen (plus Nanosyn / Reaction Biology for CDK/cyclin lines)
Text: as §1

RPS6KB1 (p70S6K) = molecular target: T4, RPS6KB1 (p70S6K) (Homo sapiens, UniProt P23443); assay: SelectScreen ZLYTE; type: biochemical; settings: INX-0315 at 100nM
T4 construct: purchased Thermo Fisher Scientific SelectScreen (plus Nanosyn / Reaction Biology for CDK/cyclin lines)
Text: as §1

FLT1 (VEGFR1) = molecular target: T5, FLT1 (VEGFR1) (Homo sapiens, UniProt P17948); assay: SelectScreen ZLYTE; type: biochemical; settings: INX-0315 at 100nM
T5 construct: purchased Thermo Fisher Scientific SelectScreen (plus Nanosyn / Reaction Biology for CDK/cyclin lines)
Text: as §1

CSNK1G3 (CK1 gamma 3) = molecular target: T6, CSNK1G3 (CK1 gamma 3) (Homo sapiens, UniProt Q9Y6M4); assay: SelectScreen ZLYTE; type: biochemical; settings: INX-0315 at 100nM
T6 construct: purchased Thermo Fisher Scientific SelectScreen (plus Nanosyn / Reaction Biology for CDK/cyclin lines)
Text: as §1

IGF1R = molecular target: T7, IGF1R (Homo sapiens, UniProt P08069); assay: SelectScreen ZLYTE; type: biochemical; settings: INX-0315 at 100nM
T7 construct: purchased Thermo Fisher Scientific SelectScreen (plus Nanosyn / Reaction Biology for CDK/cyclin lines)
Text: as §1

[1] = molecular target: T8, EGFR (ErbB1) T790M C797S L858R (Homo sapiens, UniProt P00533, C797S/L858R/T790M); assay: SelectScreen ZLYTE; type: biochemical; settings: INX-0315 at 100nM
T8 construct: purchased Thermo Fisher Scientific SelectScreen (plus Nanosyn / Reaction Biology for CDK/cyclin lines)
Text: as §1

MAP4K2 (GCK) = molecular target: T9, MAP4K2 (GCK) (Homo sapiens, UniProt Q12851); assay: SelectScreen ZLYTE; type: biochemical; settings: INX-0315 at 100nM
T9 construct: purchased Thermo Fisher Scientific SelectScreen (plus Nanosyn / Reaction Biology for CDK/cyclin lines)
Text: as §1

IKBKB (IKK beta) = molecular target: T10, IKBKB (IKK beta) (Homo sapiens, UniProt O14920); assay: SelectScreen ZLYTE; type: biochemical; settings: INX-0315 at 100nM
T10 construct: purchased Thermo Fisher Scientific SelectScreen (plus Nanosyn / Reaction Biology for CDK/cyclin lines)
Text: as §1

MCF7 Fulv-resistant = assay: Cell number dose-response; type: cell-based; settings: Homo sapiens, MCF7, read-out: IC50 (nmol/L): MCF7
Text: (§2) MCF7 abemaciclib-resistant cells were generated by continuous treatment with abemaciclib at a concentration of 250 nmol/L for 72 days, followed by 500 nmol/L for 48 days. MCF7 fulvestrant-resistant cells were generated by continuous treatment of 100 nmol/L Fulvestrant for 125 days. MCF7 abemaciclib/fulvestrant-resistant cells were generated by treating abemaciclib-resistant cells continuously with 100 nmol/L fulvestrant for 137 days. T47D abemaciclib-resistant lines were generated by continuous treatment with abemaciclib at a concentration of 500 nmol/L for 73 days. T47D fulvestrant–resistant cells were generated by continuous treatment with 100 nmol/L fulvestrant for 68 days. T47D abemaciclib/fulvestrant-resistant cells were generated by treating abemaciclib-resistant cells with continuous treatment of 100 nmol/L Fulvestrant for 60 days. Resistant cell lines were cultured in medium containing drug(s) that the line is resistant to and further authenticated using short tandem repeat profiling.
(§3) An exception to this is MCF7PDRCl5-1 cells which were first cultured for 5 days without palbociclib then plated as described. MCF7PDRCl5-1 cells were treated with either a dose curve of the indicated CDK4/6i or a dose curve of INX-315 + 1 µmol/L of the indicated CDK4/6i. Cell viability was determined using the CellTiter-Glo assay (Promega, G9241) following manufacturer's instructions. Plates were processed on either BioTek Synergy2 multi-mode (Agilent) or ClarioSTAR (BMG Labtech) plate readers. T47D and MCF7 cells were seeded into […] plates using BioTek 406 (Aglient) and treated with a ten-point dose concentration from 10 µmol/L to 0.3 nmol/L of INX-315 for 2× doubling times. Plates were fixed with 4% PFA and stained with Rhodamine-Phalloidin (Bio-Trend, 00027) and DAPI (5 mg/mL, Invitrogen, catalog no. D1306). Plates were imaged using CellInsight CX7 LZR and DAPI-positive cells were counted using Thermo Fisher Scientific HCS Studio Cell Analysis Software.

T47D Parent = assay: Cell number dose-response; type: cell-based; settings: Homo sapiens
Text: as §2, §3

T47D Abema-resistant = assay: Cell number dose-response; type: cell-based; settings: Homo sapiens, read-out: IC50 (nmol/L): T47D
Text: as §2, §3

MCF7 Parent = assay: Cell number dose-response; type: cell-based; settings: Homo sapiens
Text: as §2, §3

MCF7 Abema-resistant = assay: Cell number dose-response; type: cell-based; settings: Homo sapiens, MCF7, read-out: IC50 (nmol/L): MCF7
Text: as §2, §3

T47D Fulv-resistant = assay: Cell number dose-response; type: cell-based; settings: Homo sapiens, read-out: IC50 (nmol/L): T47D
Text: as §2, §3

[2] = test system: five cell lines with CCNE1 amplification (ovarian cancer); assay: CellTiter Glo viability assay; type: cell-based; settings: 144 h
Water solubility = type: physicochemical
CAMK2G (CaMKII gamma) = molecular target: T11, CAMK2G (CaMKII gamma) (Homo sapiens, UniProt Q13555); assay: SelectScreen LanthaScreen Binding; settings: INX-0315 at 100nM
T11 construct: purchased Thermo Fisher Scientific SelectScreen (plus Nanosyn / Reaction Biology for CDK/cyclin lines)
How it was run: (§4)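 Preset conditions throughout. Primary: 100 nmol/L INX-315, 1% DMSO. Secondary: ten doses, top 1 µmol/L, bottom 0.0495 nmol/L.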

RET G691S = molecular target: T12, RET G691S (Homo sapiens, UniProt P07949, G691S); assay: SelectScreen LanthaScreen Binding; settings: INX-0315 at 100nM
T12 construct: purchased Thermo Fisher Scientific SelectScreen (plus Nanosyn / Reaction Biology for CDK/cyclin lines)
How it was run: as §4

BRSK2 = molecular target: T13, BRSK2 (Homo sapiens, UniProt Q8IWQ3); assay: SelectScreen LanthaScreen Binding; settings: INX-0315 at 100nM
T13 construct: purchased Thermo Fisher Scientific SelectScreen (plus Nanosyn / Reaction Biology for CDK/cyclin lines)
How it was run: as §4

CDK11 (Inactive) = molecular target: T14, CDK11 (Inactive) (Homo sapiens, UniProt Q9BWU1); assay: SelectScreen LanthaScreen Binding; settings: INX-0315 at 100nM
T14 construct: purchased Thermo Fisher Scientific SelectScreen (plus Nanosyn / Reaction Biology for CDK/cyclin lines)
How it was run: as §4

MAP4K3 (GLK) = molecular target: T15, MAP4K3 (GLK) (Homo sapiens, UniProt Q8IVH8); assay: SelectScreen LanthaScreen Binding; settings: INX-0315 at 100nM
T15 construct: purchased Thermo Fisher Scientific SelectScreen (plus Nanosyn / Reaction Biology for CDK/cyclin lines)
How it was run: as §4

DDR2 T654M = molecular target: T16, DDR2 T654M (Homo sapiens, UniProt Q16832, T654M); assay: SelectScreen LanthaScreen Binding; settings: INX-0315 at 100nM
T16 construct: purchased Thermo Fisher Scientific SelectScreen (plus Nanosyn / Reaction Biology for CDK/cyclin lines)
How it was run: as §4

ALK F1174L = molecular target: T17, ALK F1174L (Homo sapiens, UniProt Q9UM73, F1174L); assay: SelectScreen LanthaScreen Binding; settings: INX-0315 at 100nM
T17 construct: purchased Thermo Fisher Scientific SelectScreen (plus Nanosyn / Reaction Biology for CDK/cyclin lines)
How it was run: as §4

T16 sequence (Q16832 22-855 T654M): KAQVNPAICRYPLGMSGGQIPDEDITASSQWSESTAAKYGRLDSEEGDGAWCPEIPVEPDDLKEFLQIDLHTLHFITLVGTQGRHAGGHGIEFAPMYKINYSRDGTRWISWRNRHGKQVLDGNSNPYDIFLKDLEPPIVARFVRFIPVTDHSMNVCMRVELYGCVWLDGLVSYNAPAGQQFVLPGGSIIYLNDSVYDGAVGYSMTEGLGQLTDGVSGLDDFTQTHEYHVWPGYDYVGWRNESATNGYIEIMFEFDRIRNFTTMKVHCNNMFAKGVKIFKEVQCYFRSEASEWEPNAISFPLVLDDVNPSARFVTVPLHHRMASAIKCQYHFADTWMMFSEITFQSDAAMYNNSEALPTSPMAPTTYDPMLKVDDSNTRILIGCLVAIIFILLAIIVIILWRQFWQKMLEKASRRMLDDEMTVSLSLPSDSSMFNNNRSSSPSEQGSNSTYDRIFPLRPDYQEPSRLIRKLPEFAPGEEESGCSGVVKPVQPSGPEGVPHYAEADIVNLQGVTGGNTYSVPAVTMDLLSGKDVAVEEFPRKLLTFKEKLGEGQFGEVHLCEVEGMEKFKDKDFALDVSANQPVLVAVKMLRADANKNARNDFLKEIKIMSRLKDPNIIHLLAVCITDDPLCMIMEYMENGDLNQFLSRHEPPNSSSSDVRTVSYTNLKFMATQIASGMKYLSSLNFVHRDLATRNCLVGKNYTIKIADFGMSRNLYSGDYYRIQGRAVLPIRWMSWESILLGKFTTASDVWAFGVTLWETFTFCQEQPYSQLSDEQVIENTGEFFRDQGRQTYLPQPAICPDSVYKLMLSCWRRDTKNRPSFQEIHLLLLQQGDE
T9 sequence (Q12851 whole entry): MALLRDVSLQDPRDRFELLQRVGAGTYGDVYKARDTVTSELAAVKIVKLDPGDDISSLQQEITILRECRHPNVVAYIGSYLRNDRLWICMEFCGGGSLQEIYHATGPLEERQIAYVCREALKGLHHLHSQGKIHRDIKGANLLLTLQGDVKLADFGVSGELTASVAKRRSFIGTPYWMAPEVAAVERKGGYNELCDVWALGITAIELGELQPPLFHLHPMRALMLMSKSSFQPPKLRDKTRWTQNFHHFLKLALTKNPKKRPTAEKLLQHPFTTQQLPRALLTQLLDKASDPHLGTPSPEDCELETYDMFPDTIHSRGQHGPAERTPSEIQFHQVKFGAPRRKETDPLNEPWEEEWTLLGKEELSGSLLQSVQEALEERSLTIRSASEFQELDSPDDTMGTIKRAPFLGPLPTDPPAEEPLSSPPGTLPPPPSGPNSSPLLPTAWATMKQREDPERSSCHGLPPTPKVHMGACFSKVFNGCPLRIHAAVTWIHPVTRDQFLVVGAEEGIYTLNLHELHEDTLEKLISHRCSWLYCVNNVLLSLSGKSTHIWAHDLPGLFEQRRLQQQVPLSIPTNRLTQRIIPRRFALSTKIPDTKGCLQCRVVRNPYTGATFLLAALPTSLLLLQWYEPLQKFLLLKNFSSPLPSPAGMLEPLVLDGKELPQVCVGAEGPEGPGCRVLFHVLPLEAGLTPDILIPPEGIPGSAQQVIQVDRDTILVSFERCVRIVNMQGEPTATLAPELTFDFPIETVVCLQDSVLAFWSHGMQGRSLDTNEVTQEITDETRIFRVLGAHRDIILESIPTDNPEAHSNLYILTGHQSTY
T8 sequence (P00533 25-1210 T790M/C797S/L858R): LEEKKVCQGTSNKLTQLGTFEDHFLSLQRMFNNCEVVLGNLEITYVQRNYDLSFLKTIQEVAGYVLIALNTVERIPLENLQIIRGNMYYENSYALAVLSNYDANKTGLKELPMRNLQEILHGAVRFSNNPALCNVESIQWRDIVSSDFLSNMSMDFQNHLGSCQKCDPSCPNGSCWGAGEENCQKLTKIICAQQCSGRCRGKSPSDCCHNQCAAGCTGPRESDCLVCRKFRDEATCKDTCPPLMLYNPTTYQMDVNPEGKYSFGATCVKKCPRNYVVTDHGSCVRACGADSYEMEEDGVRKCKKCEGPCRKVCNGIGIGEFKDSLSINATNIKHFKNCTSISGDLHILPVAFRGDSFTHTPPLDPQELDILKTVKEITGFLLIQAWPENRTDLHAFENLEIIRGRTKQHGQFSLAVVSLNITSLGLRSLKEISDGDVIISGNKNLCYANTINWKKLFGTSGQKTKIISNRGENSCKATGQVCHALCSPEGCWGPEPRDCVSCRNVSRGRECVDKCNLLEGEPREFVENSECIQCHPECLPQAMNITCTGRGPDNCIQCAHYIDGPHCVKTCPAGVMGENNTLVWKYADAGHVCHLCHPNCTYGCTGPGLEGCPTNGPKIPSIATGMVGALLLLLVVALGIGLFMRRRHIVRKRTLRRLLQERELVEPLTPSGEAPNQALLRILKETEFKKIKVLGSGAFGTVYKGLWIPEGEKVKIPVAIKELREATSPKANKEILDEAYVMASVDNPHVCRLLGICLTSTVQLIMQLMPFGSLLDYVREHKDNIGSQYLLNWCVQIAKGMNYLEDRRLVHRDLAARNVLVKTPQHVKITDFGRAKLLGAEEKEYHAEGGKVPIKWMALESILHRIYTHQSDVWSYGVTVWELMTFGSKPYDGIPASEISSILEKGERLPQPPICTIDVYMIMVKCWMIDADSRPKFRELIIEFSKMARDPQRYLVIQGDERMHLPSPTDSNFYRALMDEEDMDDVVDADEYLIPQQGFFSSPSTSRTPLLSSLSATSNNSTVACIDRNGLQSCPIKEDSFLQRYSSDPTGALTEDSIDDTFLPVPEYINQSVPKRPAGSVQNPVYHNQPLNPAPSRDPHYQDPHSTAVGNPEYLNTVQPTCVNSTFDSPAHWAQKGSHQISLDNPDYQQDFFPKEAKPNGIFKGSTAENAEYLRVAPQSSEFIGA
T4 sequence (P23443 whole entry): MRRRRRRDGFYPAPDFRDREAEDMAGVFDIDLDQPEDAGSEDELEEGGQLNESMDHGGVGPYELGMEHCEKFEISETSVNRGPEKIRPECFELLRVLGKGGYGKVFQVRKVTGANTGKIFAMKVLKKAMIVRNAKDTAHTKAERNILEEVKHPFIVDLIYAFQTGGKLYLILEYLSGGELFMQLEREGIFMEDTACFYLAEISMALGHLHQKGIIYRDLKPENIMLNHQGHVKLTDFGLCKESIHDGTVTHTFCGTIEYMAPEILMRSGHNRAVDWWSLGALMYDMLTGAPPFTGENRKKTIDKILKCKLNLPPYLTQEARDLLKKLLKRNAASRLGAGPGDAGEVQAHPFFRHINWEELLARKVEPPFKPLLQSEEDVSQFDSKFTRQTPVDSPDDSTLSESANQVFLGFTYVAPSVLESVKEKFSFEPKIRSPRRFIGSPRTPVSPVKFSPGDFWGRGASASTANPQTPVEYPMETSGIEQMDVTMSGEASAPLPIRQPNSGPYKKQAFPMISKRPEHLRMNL
T17 sequence (Q9UM73 19-1620 F1174L): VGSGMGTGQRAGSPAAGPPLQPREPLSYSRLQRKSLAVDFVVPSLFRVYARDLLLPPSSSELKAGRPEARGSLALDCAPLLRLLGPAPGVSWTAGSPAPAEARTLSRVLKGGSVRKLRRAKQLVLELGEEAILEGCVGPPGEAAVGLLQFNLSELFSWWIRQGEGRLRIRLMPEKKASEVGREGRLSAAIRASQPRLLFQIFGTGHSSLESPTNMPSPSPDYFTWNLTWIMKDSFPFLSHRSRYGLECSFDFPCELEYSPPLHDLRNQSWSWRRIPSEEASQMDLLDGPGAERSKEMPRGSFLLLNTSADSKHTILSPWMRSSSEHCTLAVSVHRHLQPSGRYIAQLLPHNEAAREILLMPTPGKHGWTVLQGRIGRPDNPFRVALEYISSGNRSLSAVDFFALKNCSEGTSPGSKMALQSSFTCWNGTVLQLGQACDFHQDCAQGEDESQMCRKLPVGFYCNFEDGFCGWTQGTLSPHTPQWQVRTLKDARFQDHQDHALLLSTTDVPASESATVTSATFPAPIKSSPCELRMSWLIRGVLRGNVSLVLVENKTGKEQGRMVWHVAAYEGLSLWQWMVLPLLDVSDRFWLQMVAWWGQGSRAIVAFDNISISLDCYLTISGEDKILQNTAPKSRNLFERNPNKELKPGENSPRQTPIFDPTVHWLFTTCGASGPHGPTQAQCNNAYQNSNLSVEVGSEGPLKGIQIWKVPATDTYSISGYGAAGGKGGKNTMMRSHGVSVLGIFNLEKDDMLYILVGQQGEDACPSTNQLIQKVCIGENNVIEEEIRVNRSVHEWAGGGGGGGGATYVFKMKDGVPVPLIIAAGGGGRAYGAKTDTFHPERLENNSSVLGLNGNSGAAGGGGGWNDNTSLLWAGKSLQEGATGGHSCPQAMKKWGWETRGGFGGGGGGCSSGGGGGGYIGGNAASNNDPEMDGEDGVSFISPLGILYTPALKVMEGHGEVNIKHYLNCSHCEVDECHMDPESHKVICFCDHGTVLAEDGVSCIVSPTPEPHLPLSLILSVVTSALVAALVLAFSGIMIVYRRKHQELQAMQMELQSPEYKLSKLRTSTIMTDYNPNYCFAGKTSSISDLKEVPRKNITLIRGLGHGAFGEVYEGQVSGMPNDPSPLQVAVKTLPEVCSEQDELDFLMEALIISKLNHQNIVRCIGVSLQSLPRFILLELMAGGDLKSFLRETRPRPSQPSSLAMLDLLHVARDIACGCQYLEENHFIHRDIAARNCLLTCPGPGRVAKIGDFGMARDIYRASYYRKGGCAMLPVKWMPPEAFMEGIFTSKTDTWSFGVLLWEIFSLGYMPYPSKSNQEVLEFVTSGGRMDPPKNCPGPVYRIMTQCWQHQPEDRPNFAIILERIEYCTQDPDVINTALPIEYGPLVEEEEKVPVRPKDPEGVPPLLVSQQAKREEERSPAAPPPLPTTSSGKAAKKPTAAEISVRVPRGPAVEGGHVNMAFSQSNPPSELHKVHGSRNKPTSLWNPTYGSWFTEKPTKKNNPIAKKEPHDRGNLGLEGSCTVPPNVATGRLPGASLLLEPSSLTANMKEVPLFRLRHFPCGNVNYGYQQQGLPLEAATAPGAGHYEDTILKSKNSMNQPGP

## NS(=O)(=O)c1ccc(Nc2ncc3cc4n(c3n2)C2(CCCCC2)C(=O)NN4)cc1 [INX-315]
BMX
  inhibition at 0.1 µM: 22%
BRAF
  inhibition at 0.1 µM: 11%
EGFR (ErbB1) L858R
  inhibition at 0.1 µM: 1%
RPS6KB1 (p70S6K)
  inhibition at 0.1 µM: 1%
FLT1 (VEGFR1)
  inhibition at 0.1 µM: 11%
CSNK1G3 (CK1 gamma 3)
  inhibition at 0.1 µM: -1%
IGF1R
  inhibition at 0.1 µM: 9%
[1]
  inhibition at 0.1 µM: 3%
MAP4K2 (GCK)
  inhibition at 0.1 µM: 0%
IKBKB (IKK beta)
  inhibition at 0.1 µM: 4%
MCF7 Fulv-resistant
  IC50: 3470 nmol/L
T47D Parent; read-out: IC50 (nmol/L): T47D, Parent + abema: 500 nmol/L abemaciclib concurrently
  IC50: 332 nmol/L
T47D Parent; read-out: IC50 (nmol/L): T47D, Parent cells in DMSO
  IC50: 360 nmol/L
T47D Abema-resistant
  IC50: 7.4 nmol/L
MCF7 Parent; MCF7, read-out: IC50 (nmol/L): MCF7, Parent + abema: 500 nmol/L abemaciclib concurrently
  IC50: 515 nmol/L
MCF7 Parent; MCF7, read-out: IC50 (nmol/L): MCF7, Parent cells in DMSO
  IC50: 267 nmol/L
MCF7 Abema-resistant
  IC50: 45 nmol/L
T47D Fulv-resistant
  IC50: 106 nmol/L
[2]; read-out: cellular IC50
  IC50: < 0.1 µM
[2]; read-out: cellular IC50, range
  IC50: 0.01 to 0.064 µM
Water solubility
  solubility: < 50 µg/mL
CAMK2G (CaMKII gamma)
  inhibition at 0.1 µM: -1%
RET G691S
  inhibition at 0.1 µM: 35%
BRSK2
  inhibition at 0.1 µM: 4%
CDK11 (Inactive)
  inhibition at 0.1 µM: 2%
MAP4K3 (GLK)
  inhibition at 0.1 µM: 8%
DDR2 T654M
  inhibition at 0.1 µM: 26%
ALK F1174L
  inhibition at 0.1 µM: 12%
